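Where inhibition never reached the appropriate level, the endpoint shown equals the highest concentration tested. Otherwise, values were interpolated linearly from a five-concentration, 48-hour dose response in 96-well plates. GI50 is the concentration that inhibits growth by half. TGI denotes the concentration required for complete inhibition of growth.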
Key:
Experiment in all cases: NCI tumour cell line growth inhibition, 48 h
[1] = test system: COLO 205 colon
[2] = test system: HCT-116 colon
[3] = test system: HL-60(TB) leukemia
[4] = test system: HT29 colon
[5] = test system: K-562 leukemia
[6] = test system: KM12 colon
[7] = test system: MCF7 breast
[8] = test system: MDA-MB-435
[9] = test system: MDA-N
[10] = test system: MOLT-4 leukemia
[11] = test system: NCI-H522 lung
[12] = test system: OVCAR-3 ovarian
[13] = test system: RPMI-8226 leukemia
[14] = test system: SF-268 CNS
[15] = test system: SF-295 CNS
[16] = test system: SK-MEL-2 melanoma
[17] = test system: SK-MEL-28 melanoma
[18] = test system: SK-MEL-5 melanoma
[19] = test system: SR leukemia
[20] = test system: T-47D breast
[21] = test system: UACC-257 melanoma
[22] = test system: UACC-62 melanoma
[23] = test system: 786-0 renal
[24] = test system: A498 renal
[25] = test system: A549 NSCLC
[26] = test system: ACHN renal
[27] = test system: BT-549 breast
[28] = test system: CAKI-1 renal
[29] = test system: DU-145 prostate
[30] = test system: EKVX NSCLC
[31] = test system: HCC-2998 colon
[32] = test system: HCT-15 colon
[33] = test system: HOP-62 NSCLC
[34] = test system: HOP-92 NSCLC
[35] = test system: HS 578T breast
[36] = test system: IGROV1 ovarian
[37] = test system: LOX IMVI melanoma
[38] = test system: M14 melanoma
[39] = test system: MALME-3M melanoma
[40] = test system: MDA-MB-231 breast
[41] = test system: NCI-H226 lung
[42] = test system: NCI-H23 lung
[43] = test system: NCI-H460 lung
[44] = test system: NCI/ADR-RES ovarian
[45] = test system: OVCAR-4 ovarian
[46] = test system: OVCAR-5 ovarian
[47] = test system: OVCAR-8 ovarian
[48] = test system: PC-3 prostate
[49] = test system: RXF 393 renal
[50] = test system: SF-539 CNS
[51] = test system: SK-OV-3 ovarian
[52] = test system: SN12C renal
[53] = test system: SNB-19 CNS
[54] = test system: SNB-75 CNS
[55] = test system: SW-620 colon
[56] = test system: TK-10 renal
[57] = test system: U251 CNS
[58] = test system: UO-31 renal

## O=C1C2=C(Nc3cc([N+](=O)[O-])ccc3N2)OC1c1ccc(C2OC3=C(Nc4ccc([N+](=O)[O-])cc4N3)C2=O)cc1 (configuration not stated)
[1]
  GI50: 19.7 µM
  TGI: 45.1 µM
[2]
  GI50: 79.9 µM
[3]
  GI50: 0.184 µM
  TGI: 1.09 µM
[4]
  GI50: 98.9 µM
[5]
  GI50: 19.1 µM
[6]
  GI50: 26.1 µM
[7]
  GI50: 53.3 µM
[8]
  GI50: 22.1 µM
  TGI: 53.4 µM
[9]
  GI50: 42.8 µM
[10]
  GI50: 22 µM
[11]
  GI50: 6.12 µM
[12]
  GI50: 37.5 µM
[13]
  GI50: 53.6 µM
[14]
  GI50: 64.9 µM
[15]
  GI50: 23.3 µM
  TGI: 77.3 µM
[16]
  GI50: 63.3 µM
[17]
  GI50: 41.8 µM
[18]
  GI50: 38.9 µM
[19]
  GI50: 19.4 µM
[20]
  GI50: 48 µM
[21]
  GI50: 28 µM
  TGI: 96.8 µM
[22]
  GI50: 30.4 µM

## O=C(O)C(Cc1c[nH]c2ccccc12)N1C(=O)c2ccccc2C1=O (configuration not stated)
[23]
  TGI: > 100 µM
[24]
  TGI: > 100 µM
[25]
  TGI: > 100 µM
[26]
  TGI: > 100 µM
[27]
  TGI: > 100 µM
[28]
  TGI: > 100 µM
[1]
  TGI: > 100 µM
[29]
  TGI: > 100 µM
[30]
  TGI: > 100 µM
[31]
  TGI: > 100 µM
[2]
  TGI: > 100 µM
[32]
  TGI: > 100 µM
[33]
  TGI: > 100 µM
[34]
  TGI: > 100 µM
[35]
  TGI: > 100 µM
[4]
  TGI: > 100 µM
[36]
  TGI: > 100 µM
[6]
  TGI: > 100 µM
[37]
  TGI: > 100 µM
[38]
  TGI: > 100 µM
[39]
  TGI: > 100 µM
[7]
  TGI: > 100 µM
[40]
  TGI: > 100 µM
[8]
  TGI: > 100 µM
[9]
  TGI: > 100 µM
[41]
  TGI: > 100 µM
[42]
  TGI: > 100 µM
[43]
  TGI: > 100 µM
[11]
  TGI: > 100 µM
[44]
  TGI: > 100 µM
[12]
  TGI: > 100 µM
[45]
  TGI: > 100 µM
[46]
  TGI: > 100 µM
[47]
  TGI: > 100 µM
[48]
  TGI: > 100 µM
[13]
  TGI: > 100 µM
[49]
  TGI: > 100 µM
[14]
  TGI: > 100 µM
[15]
  TGI: > 100 µM
[50]
  TGI: > 100 µM
[16]
  TGI: > 100 µM
[17]
  TGI: > 100 µM
[18]
  TGI: > 100 µM
[51]
  TGI: > 100 µM
[52]
  TGI: > 100 µM
[53]
  TGI: > 100 µM
[54]
  TGI: > 100 µM
[55]
  TGI: > 100 µM
[20]
  TGI: > 100 µM
[56]
  TGI: > 100 µM
[57]
  TGI: > 100 µM
[21]
  TGI: > 100 µM
[22]
  TGI: > 100 µM
[58]
  TGI: > 100 µM

## COc1ccc(-c2oc3cc(OC)ccc3c(=O)c2O)cc1
[23]
  TGI: > 100 µM
[24]
  TGI: > 100 µM
[27]
  TGI: 4.23 µM
[28]
  TGI: 8.33 µM
[1]
  TGI: > 100 µM
[30]
  TGI: > 100 µM
[2]
  TGI: > 100 µM
[32]
  TGI: > 100 µM
[34]
  TGI: > 31.6 µM
[35]
  TGI: 5.53 µM
[4]
  TGI: > 100 µM
[36]
  TGI: > 31.6 µM
[37]
  TGI: > 100 µM
[38]
  TGI: > 31.6 µM
[39]
  TGI: > 31.6 µM
[7]
  TGI: > 31.6 µM
[40]
  TGI: > 100 µM
[8]
  TGI: > 31.6 µM
[9]
  TGI: > 100 µM
[43]
  TGI: > 100 µM
[45]
  TGI: > 31.6 µM
[48]
  TGI: > 100 µM
[13]
  TGI: > 31.6 µM
[49]
  TGI: 42.6 µM
[15]
  TGI: > 100 µM
[17]
  TGI: > 31.6 µM
[18]
  TGI: > 100 µM
[53]
  TGI: > 100 µM
[56]
  TGI: > 100 µM
[57]
  TGI: > 100 µM
[21]
  TGI: > 100 µM

From PubChem BioAssay (NCI)
